In US20140329870A1, “COMPOSITIONS COMPRISING ISOSORBIDE MONOESTERS AND ISOTHIAZOLINONES” (CLARIANT INTERNATIONAL LTD., priority 2011, published 2014):
Converted amounts (≈) assume the structure as drawn. Read-outs that look alike come from different tables or passages of the source.

Key:
[1] = test system: bacteria, fungi and yeasts; settings: general statement, no test data given, cited from earlier work
[2] = test system: Aspergillus brasiliensis; assay: Minimum inhibitory concentration (MIC) in agar, antimicrobial efficacy; assay type: cell-based; settings: Sabouraud 4% dextrose agar pH 5.6
Procedure: (§1) Below, the antimicrobial efficacy of a composition according to the invention consisting of 50% by weight of isorbide caprylate 1 and 50% by weight of a 2% by weight strength solution of methylisothiazolinone in water against bacteria, fungi and yeasts is examined (hereinbelow, the composition is referred to as “composition A”). For the tests with bacteria, composition A was diluted with butyl polyglycol and then, at 50° C., added to liquid CASO agar (casein-peptone agar) buffered to pH 7 (+/−0.2) in various concentrations (hereinbelow referred to as compositions B1, B2, etc.). For the tests with fungi and yeasts, composition A was diluted with butyl polyglycol and then added to liquid Sabouraud 4% dextrose agar buffered to pH 5.6 (+/−0.2) in various concentrations (hereinbelow referred to as compositions PH1, PH2, etc.). The compositions B1, B2, etc. and PH1, PH2 etc. were each poured into Petri dishes and each inoculated with identical amounts of bacteria, fungi and yeasts. The minimum inhibitory concentration (MIC) is the concentration at which inhibition of the growth of the bacteria, fungi and yeasts in the compositions B1, B2, etc. and PH1, PH2, etc. occurs.
(§2) The minimum inhibitory concentrations for the pure substances isosorbide caprylate 1 and methylisothiazolinone were determined analogously.
(§3) The values determined for the minimum inhibitory concentrations “MIC mixture”, stated in Table 1 below, are based on the concentrations of composition A.
(§4) The values determined for the minimum inhibitory concentrations “QA” and “QB”, stated in Table 1 below, have already been corrected for the dilution effect of the water and the butyl polyglycol.
(§5) Kull et al., Applied Microbiology 1961, 9, 538 using the formula below: […]
(§6) where • Qa is the minimum inhibitory concentration of isosorbide caprylate 1 in the mixture employed, • QA is the minimum inhibitory concentration of isosorbide caprylate 1, • Qb is the minimum inhibitory concentration of methylisothiazolinone in the mixture employed and • QB is the minimum inhibitory concentration of methylisothiazolinone.
(§7) The values for Qa and Qb are determined from the values for the mixtures (“MIC mixture”) by multiplying the minimum inhibitory concentrations determined for Qa with the factor 0.5 and for Qb with the factor 0.01, because of the proportions of the ingredients—50% by weight of isosorbide caprylate 1 and 50% by weight of a 2% by weight strength solution of methylisothiazolinone in water—in composition A according to the invention examined.
(§8) If an SE value >1 is obtained, an antagonistic effect is present.

[3] = test system: Aspergillus terreus; assay: as above; assay type: cell-based; settings: Sabouraud 4% dextrose agar pH 5.6
Procedure: as §1, §2, §3, §4, §5, §6, §7, §8

[4] = test system: Candida albicans; assay: as above; assay type: cell-based; settings: Sabouraud 4% dextrose agar pH 5.6
Procedure: as §1, §2, §3, §4, §5, §6, §7, §8

[5] = test system: Citrobacter freundii; assay: as above; assay type: cell-based; settings: CASO agar pH 7
Procedure: as §1, §2, §3, §4, §5, §6, §7, §8

[6] = test system: Enterobacter aerogenes; assay: as above; assay type: cell-based; settings: CASO agar pH 7
Procedure: as §1, §2, §3, §4, §5, §6, §7, §8

[7] = test system: Escherichia coli; assay: as above; assay type: cell-based; settings: CASO agar pH 7
Procedure: as §1, §2, §3, §4, §5, §6, §7, §8

[8] = test system: Fusarium solani; assay: as above; assay type: cell-based; settings: Sabouraud 4% dextrose agar pH 5.6
Procedure: as §1, §2, §3, §4, §5, §6, §7, §8

[9] = test system: Klebsiella pneumoniae; assay: as above; assay type: cell-based; settings: CASO agar pH 7
Procedure: as §1, §2, §3, §4, §5, §6, §7, §8

[10] = test system: Penicillium funicolosium; assay: as above; assay type: cell-based; settings: Sabouraud 4% dextrose agar pH 5.6
Procedure: as §1, §2, §3, §4, §5, §6, §7, §8

[11] = test system: Penicillium minioluteum; assay: as above; assay type: cell-based; settings: Sabouraud 4% dextrose agar pH 5.6
Procedure: as §1, §2, §3, §4, §5, §6, §7, §8

[12] = test system: Proteus vulgaris; assay: as above; assay type: cell-based; settings: CASO agar pH 7
Procedure: as §1, §2, §3, §4, §5, §6, §7, §8

[13] = test system: Pseudomonas aeruginosa; assay: as above; assay type: cell-based; settings: CASO agar pH 7
Procedure: as §1, §2, §3, §4, §5, §6, §7, §8

[14] = test system: Pseudomonas oleovorans; assay: as above; assay type: cell-based; settings: CASO agar pH 7
Procedure: as §1, §2, §3, §4, §5, §6, §7, §8

[15] = test system: Staphylococcus aureus; assay: as above; assay type: cell-based; settings: CASO agar pH 7
Procedure: as §1, §2, §3, §4, §5, §6, §7, §8

[16] = test system: bacteria, fungi and yeasts; assay: Antimicrobial activity, overall statements on the test series; assay type: cell-based
Procedure: as §1, §2, §5

[17] = in composition A, MIC mixture x 0.01
[18] = pure substance, corrected for dilution

In the case of `CCCCCCCC(=O)O` [caprylic acid, octanoic acid], the “antimicrobial activity (in words)” value ([1]; at a pH of 6 or above) is given as “no antimicrobial activity” and the “antimicrobial efficacy (in words)” value [1] is given as “antimicrobially effective”.

In the case of `O[C@@H]1CO[C@H]2[C@@H]1OC[C@@H]2O` [isosorbide], the MIC ([2]; Aspergillus brasiliensis, Table 2) is reported as 10000 µg/mL (≈ 68.4 mM), the MIC ([3]; Aspergillus terreus, Table 2) is reported as 10000 µg/mL (≈ 68.4 mM) and the MIC ([4]; Candida albicans, Table 2) is reported as 10000 µg/mL (≈ 68.4 mM). For the same compound, the MIC ([5]; Citrobacter freundii, Table 2) was 10000 µg/mL (≈ 68.4 mM), the MIC ([6]; Klebsiella aerogenes, Table 2) was 10000 µg/mL (≈ 68.4 mM) and the MIC ([7]; Escherichia coli, Table 2) was 10000 µg/mL (≈ 68.4 mM). It also gave an MIC ([8]; Fusarium solani, Table 2) of 10000 µg/mL (≈ 68.4 mM), an MIC ([9]; Klebsiella pneumoniae, Table 2) of 10000 µg/mL (≈ 68.4 mM) and an MIC ([10]; Penicillium, Table 2) of 10000 µg/mL (≈ 68.4 mM). For the same compound, the MIC ([11]; Talaromyces minioluteus, Table 2) was 10000 µg/mL (≈ 68.4 mM), the MIC ([12]; Proteus vulgaris, Table 2) was 10000 µg/mL (≈ 68.4 mM) and the MIC ([13]; Pseudomonas aeruginosa, Table 2) was 10000 µg/mL (≈ 68.4 mM). The MIC ([14]; Ectopseudomonas oleovorans, Table 2) was 10000 µg/mL (≈ 68.4 mM), the MIC ([15]; Staphylococcus aureus, Table 2) was 10000 µg/mL (≈ 68.4 mM) and the “antimicrobial activity (in words)” value ([16]; as shown by the results of Table 2) was “neither isosorbide nor isosorbide dicaprylate are antimicrobially active”.

For `Cn1sccc1=O` [methylisothiazolinone], the “Qb, calc. (MIC of methylisothiazolinone in the mixture employed)” value [2, 17] was 10 ppm, the “QB, meas. (MIC of methylisothiazolinone)” value [2, 18] was 100 ppm and the “Qb, calc. (MIC of methylisothiazolinone in the mixture employed)” value [3, 17] was 7.5 ppm. The “QB, meas. (MIC of methylisothiazolinone)” value [3, 18] was 100 ppm, the “Qb, calc. (MIC of methylisothiazolinone in the mixture employed)” value [4, 17] was 10 ppm and the “QB, meas. (MIC of methylisothiazolinone)” value [4, 18] was 100 ppm. The “Qb, calc. (MIC of methylisothiazolinone in the mixture employed)” value [5, 17] was 10 ppm, the “QB, meas. (MIC of methylisothiazolinone)” value [5, 18] was 15 ppm and the “Qb, calc. (MIC of methylisothiazolinone in the mixture employed)” value [6, 17] was 15 ppm. For the same compound, the “QB, meas. (MIC of methylisothiazolinone)” value [6, 18] was 15 ppm, the “Qb, calc. (MIC of methylisothiazolinone in the mixture employed)” value [7, 17] was 10 ppm and the “QB, meas. (MIC of methylisothiazolinone)” value [7, 18] was 10 ppm. For the same compound, the “Qb, calc. (MIC of methylisothiazolinone in the mixture employed)” value [8, 17] was 7.5 ppm, the “QB, meas. (MIC of methylisothiazolinone)” value [8, 18] was 100 ppm and the “Qb, calc. (MIC of methylisothiazolinone in the mixture employed)” value [9, 17] was 15 ppm. For the same compound, the “QB, meas. (MIC of methylisothiazolinone)” value [9, 18] was 15 ppm, the “Qb, calc. (MIC of methylisothiazolinone in the mixture employed)” value [10, 17] was 7.5 ppm and the “QB, meas. (MIC of methylisothiazolinone)” value [10, 18] was 100 ppm. For the same compound, the “Qb, calc. (MIC of methylisothiazolinone in the mixture employed)” value [11, 17] was 7.5 ppm, the “QB, meas. (MIC of methylisothiazolinone)” value [11, 18] was 100 ppm and the “Qb, calc. (MIC of methylisothiazolinone in the mixture employed)” value [12, 17] was 5 ppm. For the same compound, the “QB, meas. (MIC of methylisothiazolinone)” value [12, 18] was 5 ppm, the “Qb, calc. (MIC of methylisothiazolinone in the mixture employed)” value [13, 17] was 20 ppm and the “QB, meas. (MIC of methylisothiazolinone)” value [13, 18] was 40 ppm. For the same compound, the “Qb, calc. (MIC of methylisothiazolinone in the mixture employed)” value [14, 17] was 5 ppm, the “QB, meas. (MIC of methylisothiazolinone)” value [14, 18] was 5 ppm and the “Qb, calc. (MIC of methylisothiazolinone in the mixture employed)” value [15, 17] was 25 ppm. The “QB, meas. (MIC of methylisothiazolinone)” value [15, 18] was 40 ppm.

For isosorbide monocaprylate, the “antimicrobial activity (in words)” value ([16]; concluded from Tables 1 and 2) was “significant antimicrobial activity”.
